Test results taken from patent publication US12630534B2 (TAKEDA PHARMACEUTICAL COMPANY LIMITED, priority 2020, dated 2026).

Target: T1, human GPR139 (Homo sapiens, UniProt Q6DWJ6)
T1 construct: expressed in transfected cells; host or cells: CHO-TREx (Life Technologies) cells, expression induced with doxycycline
T1 sequence (Q6DWJ6 1-353): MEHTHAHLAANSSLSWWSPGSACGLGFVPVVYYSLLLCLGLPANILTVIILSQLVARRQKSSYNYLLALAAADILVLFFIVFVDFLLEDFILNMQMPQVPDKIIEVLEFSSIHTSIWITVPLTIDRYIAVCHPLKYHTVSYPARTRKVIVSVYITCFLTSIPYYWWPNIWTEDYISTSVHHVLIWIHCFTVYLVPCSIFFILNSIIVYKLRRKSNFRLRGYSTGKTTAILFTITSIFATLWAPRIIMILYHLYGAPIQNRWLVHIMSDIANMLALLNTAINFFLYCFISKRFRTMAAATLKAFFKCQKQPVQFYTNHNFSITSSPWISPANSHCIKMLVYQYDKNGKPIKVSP
Assay: Inhibition rate of the amount of IP1 in GPR139-expressed CHO cells (inverse agonist assay, Test Example 2)
Assay type: cell-based
Conditions: relative value, inhibition rate of Example Compound 2 in Test Example 1 defined as 100%; for inhibition at 30 µM: CHO
Experimental: The measurement of IP1 was made using an IP-ONE HTFR assay kit (cis-bio) and CHO-TREx (Life Technologies) cells stably transfected with GPR139. The CHO-TREx cells expressed human GPR139 with a tetracycline-inducing element. The cells were cultured in a medium containing F12K and 10% tetracycline-free FBS, and the expression of human GPR139 was induced over the course of 17 hours under conditions of 37° C. and 5% CO2 in the presence of 2 μg/mL of doxycycline (Clontech, 631311) in the growth medium on the day before assay. On the day of the test, after the cells were washed with 10 mL of PBS, the cells were detached with TrypLE Express (Life Technologies) and centrifuged at 1,000 rpm to form pellets, and a cell suspension was then prepared using a stimulation buffer (cis-bio, included in the IP-ONE HTRF assay kit).
The compound was diluted with the stimulation buffer, and 4 μL was added to a 384-well white assay plate (Greiner). The cell suspension was added so that there were 2000 cells per well, and the assay plate was left to stand for 40 minutes at 37° C. Equal amounts of IP1-d2 and Ab-Crp solutions (both available from cis-bio, included in the IP-ONE HTRF assay kit) prepared with a lysis buffer (cis-bio, included in the IP-ONE HTRF assay kit) were mixed, and 4 μL was added to the assay plate and left to stand for one hour at room temperature. After the fluorescence strengths of two wavelengths were measured by the HTRF settings of Envision (PerkinElmer), the value of Ratio={(Signal 665 nm)/(Signal 615 nm)}×10000 was calculated.
Measurement of the Inhibition Rate of the Amount of IP1 in GPR139-Expressed CHO Cells (Inverse Agonist Assay)
The activities of the compounds of Examples 1 and 3 to 167 were expressed as relative values in Table 2 by measuring the inhibition rate of the amount of IP1 with the same method as in Test Example 1 and defining the inhibition rate of the amount of IP1 of Example Compound 2 in Test Example 1 as […].

inhibition at 30 µM	Inhibition Rate at 30 μM	Compound
100%	–	CCn1cc(Cn2c(C)c(C)n(-c3cc(OCC(F)F)cc(N4CCO[C@H](C)C4)c3)c2=O)cn1 [Example 46, 1-{3-(2,2-difluoroethoxy)-5-[(2R)-2-methylmorpholin-4-yl]phenyl}-3-[(1-ethyl-1H-pyrazol-4-yl)methyl]-4,5-dimethyl-1,3-dihydro-2H-imidazol-2-one]
101%	–	CCn1cc(Cn2c(C)c(C)n(-c3cc(OCC(F)(F)F)cc(N4CCO[C@H](C)C4)c3)c2=O)cn1 [Example 47, 1-[(1-ethyl-1H-pyrazol-4-yl)methyl]-4,5-dimethyl-3-{3-[(2R)-2-methylmorpholin-4-yl]-5-(2,2,2-trifluoroethoxy)phenyl}-1,3-dihydro-2H-imidazol-2-one]
101%	–	CCn1cc(Cn2cc(C)n(-c3cc(OCOC)cc(C(F)(F)F)c3)c2=O)cn1 [Example 48, 1-[(1-ethyl-1H-pyrazol-4-yl)methyl]-3-[3-(methoxymethoxy)-5-(trifluoromethyl)phenyl]-4-methyl-1,3-dihydro-2H-imidazol-2-one]
102%	–	CCn1cc(Cn2cc(C)n(-c3cc(OCC4CCO4)cc(C(F)(F)F)c3)c2=O)cn1 (centres unmarked) [Example 49, 1-[(1-ethyl-1H-pyrazol-4-yl)methyl]-4-methyl-3-{3-[(oxetan-2-yl)methoxy]-5-(trifluoromethyl)phenyl}-1,3-dihydro-2H-imidazol-2-one]
–	102%	CCn1cc(Cn2cc(C)n(-c3cc(OCC4CC4(F)F)cc(C(F)(F)F)c3)c2=O)cn1 (centres unmarked) [Example 50, 3-{3-[(2,2-difluorocyclopropyl)methoxy]-5-(trifluoromethyl)phenyl}-1-[(1-ethyl-1H-pyrazol-4-yl)methyl]-4-methyl-1,3-dihydro-2H-imidazol-2-one]
–	102%	CCn1cc(Cn2cc(C)n(-c3cc(OCC4CC4(F)F)cc(C(F)(F)F)c3)c2=O)cn1 (centres unmarked) [Example 51, 3-{3-[(2,2-difluorocyclopropyl)methoxy]-5-(trifluoromethyl)phenyl}-1-[(1-ethyl-1H-pyrazol-4-yl)methyl]-4-methyl-1,3-dihydro-2H-imidazol-2-one]
99%	–	CCn1cc(Cn2cc(C)n(-c3cc(OCC4(F)CCC4)cc(C(F)(F)F)c3)c2=O)cn1 [Example 52, 1-[(1-ethyl-1H-pyrazol-4-yl)methyl]-3-{3-[(1-fluorocyclobutyl)methoxy]-5-(trifluoromethyl)phenyl}-4-methyl-1,3-dihydro-2H-imidazol-2-one]
101%	–	CCn1cc(Cn2c(C)cn(-c3cc(N(C)C4CCOCC4)cc(C(F)(F)F)c3F)c2=O)cn1 [Example 53, 3-[(1-ethyl-1H-pyrazol-4-yl)methyl]-1-{2-fluoro-5-[methyl(oxan-4-yl)amino]-3-(trifluoromethyl)phenyl}-4-methyl-1,3-dihydro-2H-imidazol-2-one]
101%	–	CCn1cc(Cn2c(C)cn(-c3cc(N4CCOC(F)(F)C4)cc(C(F)(F)F)c3F)c2=O)cn1 [Example 54, 1-[5-(2,2-difluoromorpholin-4-yl)-2-fluoro-3-(trifluoromethyl)phenyl]-3-[(1-ethyl-1H-pyrazol-4-yl)methyl]-4-methyl-1,3-dihydro-2H-imidazol-2-one]
101%	–	CCn1cc(Cn2c(C)cn(-c3cc(N4CCO[C@H](C)C4)cc(OCC(F)(F)F)c3F)c2=O)cn1 [Example 55, 3-[(1-ethyl-1H-pyrazol-4-yl)methyl]-1-{2-fluoro-5-[(2R)-2-methylmorpholin-4-yl]-3-(2,2,2-trifluoroethoxy)phenyl}-4-methyl-1,3-dihydro-2H-imidazol-2-one]
98%	–	CCn1cc(Cn2cc(C)n(-c3cc(OCC4(F)CC4)cc(C(F)(F)F)c3)c2=O)cn1 [Example 56, 1-[(1-ethyl-1H-pyrazol-4-yl)methyl]-3-{3-[(1-fluorocyclopropyl)methoxy]-5-(trifluoromethyl)phenyl}-4-methyl-1,3-dihydro-2H-imidazol-2-one]
101%	–	CCn1cc(Cn2c(C)cn(-c3cc(N4CCO[C@H](C)C4)cc(C(F)(F)F)c3Cl)c2=O)cn1 [Example 57, 1-{2-chloro-5-[(2R)-2-methylmorpholin-4-yl]-3-(trifluoromethyl)phenyl}-3-[(1-ethyl-1H-pyrazol-4-yl)methyl]-4-methyl-1,3-dihydro-2H-imidazol-2-one]
98%	–	CCn1cc(Cn2c(C)cn(-c3cc(N(C)C4CCOCC4)cc(C(F)(F)F)c3Cl)c2=O)cn1 [Example 58, 1-{2-chloro-5-[methyl(oxan-4-yl)amino]-3-(trifluoromethyl)phenyl}-3-[(1-ethyl-1H-pyrazol-4-yl)methyl]-4-methyl-1,3-dihydro-2H-imidazol-2-one]
102%	–	CCn1cc(Cn2c(C)c(C)n(-c3nc(N4CCO[C@H](C)C4)cc(C(F)(F)F)c3F)c2=O)cn1 [Example 59, 1-[(1-ethyl-1H-pyrazol-4-yl)methyl]-3-{3-fluoro-6-[(2R)-2-methylmorpholin-4-yl]-4-(trifluoromethyl)pyridin-2-yl}-4,5-dimethyl-1,3-dihydro-2H-imidazol-2-one]
101%	–	CCn1cc(Cn2c(C)c(C)n(-c3cc(C(F)(F)F)cc(N4CCO[C@H](C)C4)n3)c2=O)cn1 [Example 60, 1-[(1-Ethyl-1H-pyrazole-4-yl)methyl]-4,5-dimethyl-3-{6-[(2R)-2-methylmorpholine-4-yl]-4-(trifluoromethyl)pyridine-2-yl}-1,3-dihydro-2H-imidazole-2-one]
102%	–	CC(C)n1cc(Cn2ccn(-c3cc(N(C)C4CCOCC4)cc(C(F)(F)F)c3F)c2=O)cn1 [Example 61, 1-{2-fluoro-5-[methyl(oxan-4-yl)amino]-3-(trifluoromethyl)phenyl}-3-{[1-(propan-2-yl)-1H-pyrazol-4-yl]methyl}-1,3-dihydro-2H-imidazol-2-one]
99%	–	CCn1cc(Cn2c(C)cn(-c3cc(N4CCO[C@H](C)C4)cc(C(F)(F)F)c3C)c2=O)cn1 [Example 62, 3-[(1-ethyl-1H-pyrazol-4-yl)methyl]-4-methyl-1-{2-methyl-5-[(2R)-2-methylmorpholin-4-yl]-3-(trifluoromethyl)phenyl}-1,3-dihydro-2H-imidazol-2-one]
100%	–	CCn1cc(Cn2c(C)c(C)n(-c3cc(N4CCOC(F)(F)C4)cc(C(F)(F)F)c3)c2=O)cn1 [Example 63, 1-[3-(2,2-difluoromorpholin-4-yl)-5-(trifluoromethyl)phenyl]-3-[(1-ethyl-1H-pyrazol-4-yl)methyl]-4,5-dimethyl-1,3-dihydro-2H-imidazol-2-one]
98%	–	Cc1cn(-c2nc(N3CCO[C@H](C)C3)cc(C(F)(F)F)c2F)c(=O)n1Cc1cnn(C(C)C)c1 [Example 64, 1-{3-fluoro-6-[(2R)-2-methylmorpholin-4-yl]-4-(trifluoromethyl)pyridin-2-yl}-4-methyl-3-{[1-(propan-2-yl)-1H-pyrazol-4-yl]methyl}-1,3-dihydro-2H-imidazol-2-one]
98%	–	CCn1cc(Cn2cc(C)n(-c3cc(Br)cc(OCC4CC(F)(F)C4)c3)c2=O)cn1 [Example 65, 3-{3-bromo-5-[(3,3-difluorocyclobutyl)methoxy]phenyl}-1-[(1-ethyl-1H-pyrazol-4-yl)methyl]-4-methyl-1,3-dihydro-2H-imidazol-2-one]
99%	–	CCn1cc(Cn2cc(C)n(-c3cc(OC[C@@H]4CCCO4)cc(C(F)(F)F)c3)c2=O)cn1 [Example 66, 1-[(1-ethyl-1H-pyrazol-4-yl)methyl]-4-methyl-3-[3-{[(2S)-oxolan-2-yl]methoxy}-5-(trifluoromethyl)phenyl]-1,3-dihydro-2H-imidazol-2-one]
98%	–	CCn1cc(Cn2cc(C)n(-c3cc(OCC4CC(F)(F)C4)cc(C4CC4)c3)c2=O)cn1 [Example 67, 3-{3-cyclopropyl-5-[(3,3-difluorocyclobutyl)methoxy]phenyl}-1-[(1-ethyl-1H-pyrazol-4-yl)methyl]-4-methyl-1,3-dihydro-2H-imidazol-2-one]
98%	–	CCn1cc(Cn2cc(C)n(-c3cc(OCC4CC(F)(F)C4)cc(C(F)F)c3)c2=O)cn1 [Example 68, 3-{3-[(3,3-difluorocyclobutyl)methoxy]-5-(difluoromethyl)phenyl}-1-[(1-ethyl-1H-pyrazol-4-yl)methyl]-4-methyl-1,3-dihydro-2H-imidazol-2-one]
